The NIST ThermoML archive (doi:10.1021/acs.jced.8b01135)

Assay: xn = mol fraction of the nth substance listed
Conditions: 102 kPa, Liquid; for speed of sound: Frequency=3 MHz, Single path-length method; for mass density: Vibrating tube method; for viscosity: Concentric cylinders viscometry

CCCCCCC1CCCCC1 [hexylcyclohexane] + CCCCCCCCCCCC
Conditions	mass density [kg/m3]	speed of sound [m/s]	viscosity [mPa·s]
288.15 K, x1 = 0.1009	757.85	1322.7	–
288.15 K, x1 = 0.1998	763.33	1328.2	–
288.15 K, x1 = 0.3001	768.99	1334.2	–
288.15 K, x1 = 0.4001	774.72	1340.2	–
288.15 K, x1 = 0.5004	780.57	1346.3	–
288.15 K, x1 = 0.5996	786.46	1352.5	–
288.15 K, x1 = 0.7005	792.54	1359.2	–
288.15 K, x1 = 0.7996	798.63	1365.9	–
288.15 K, x1 = 0.8997	804.88	1373	–
288.15 K, x1 = 1	811.34	1380.4	–
293.15 K, x1 = 0.1002	–	–	1.53
293.15 K, x1 = 0.1009	754.24	1303.2	–
293.15 K, x1 = 0.1998	759.72	1308.8	–
293.15 K, x1 = 0.201	–	–	1.58
293.15 K, x1 = 0.3	–	–	1.64
293.15 K, x1 = 0.3001	765.39	1314.7	–
293.15 K, x1 = 0.3998	–	–	1.7
293.15 K, x1 = 0.4001	771.13	1320.7	–
293.15 K, x1 = 0.5002	–	–	1.76
293.15 K, x1 = 0.5004	776.99	1326.9	–
293.15 K, x1 = 0.5996	782.88	1333.2	–
293.15 K, x1 = 0.5999	–	–	1.83
293.15 K, x1 = 0.6998	–	–	1.91
293.15 K, x1 = 0.7005	788.97	1339.8	–
293.15 K, x1 = 0.7996	795.06	1346.5	–
293.15 K, x1 = 0.8001	–	–	1.99
293.15 K, x1 = 0.8997	801.31	1353.4	–
293.15 K, x1 = 0.8998	–	–	2.08
293.15 K, x1 = 1	807.76	1360.9	2.19
298.15 K, x1 = 0.1009	750.61	1283.8	–
298.15 K, x1 = 0.1998	756.11	1289.4	–
298.15 K, x1 = 0.3001	761.78	1295.3	–
298.15 K, x1 = 0.4001	767.53	1301.3	–
298.15 K, x1 = 0.5004	773.39	1307.5	–
298.15 K, x1 = 0.5996	779.29	1313.8	–
298.15 K, x1 = 0.7005	785.38	1320.4	–
298.15 K, x1 = 0.7996	791.48	1327.1	–
298.15 K, x1 = 0.8997	797.74	1334	–
298.15 K, x1 = 1	804.19	1341.4	–
303.15 K, x1 = 0.1002	–	–	1.3
303.15 K, x1 = 0.1009	746.99	1264.6	–
303.15 K, x1 = 0.1998	752.5	1270.2	–
303.15 K, x1 = 0.201	–	–	1.34
303.15 K, x1 = 0.3	–	–	1.38
303.15 K, x1 = 0.3001	758.17	1276.1	–
303.15 K, x1 = 0.3998	–	–	1.43
303.15 K, x1 = 0.4001	763.92	1282.1	–
303.15 K, x1 = 0.5002	–	–	1.48
303.15 K, x1 = 0.5004	769.79	1288.3	–
303.15 K, x1 = 0.5996	775.7	1294.6	–
303.15 K, x1 = 0.5999	–	–	1.54
303.15 K, x1 = 0.6998	–	–	1.6
303.15 K, x1 = 0.7005	781.79	1301.2	–
303.15 K, x1 = 0.7996	787.89	1307.8	–
303.15 K, x1 = 0.8001	–	–	1.66
303.15 K, x1 = 0.8997	794.16	1314.7	–
303.15 K, x1 = 0.8998	–	–	1.74
303.15 K, x1 = 1	800.61	1322.1	1.79
313.15 K, x1 = 0.1002	–	–	1.11
313.15 K, x1 = 0.1009	739.73	1226.8	–
313.15 K, x1 = 0.1998	745.25	1232.4	–
313.15 K, x1 = 0.201	–	–	1.14
313.15 K, x1 = 0.3	–	–	1.17
313.15 K, x1 = 0.3001	750.94	1238.3	–
313.15 K, x1 = 0.3998	–	–	1.21
313.15 K, x1 = 0.4001	756.7	1244.3	–
313.15 K, x1 = 0.5002	–	–	1.25
313.15 K, x1 = 0.5004	762.59	1250.5	–
313.15 K, x1 = 0.5996	768.5	1256.8	–
313.15 K, x1 = 0.5999	–	–	1.3
313.15 K, x1 = 0.6998	–	–	1.34
313.15 K, x1 = 0.7005	774.6	1263.4	–
313.15 K, x1 = 0.7996	780.72	1270.1	–
313.15 K, x1 = 0.8001	–	–	1.4
313.15 K, x1 = 0.8997	786.99	1276.9	–
313.15 K, x1 = 0.8998	–	–	1.46
313.15 K, x1 = 1	793.43	1284.2	1.52
323.15 K, x1 = 0.1002	–	–	0.958
323.15 K, x1 = 0.1009	732.44	1189.7	–
323.15 K, x1 = 0.1998	737.97	1195.4	–
323.15 K, x1 = 0.201	–	–	0.986
323.15 K, x1 = 0.3	–	–	1.01
323.15 K, x1 = 0.3001	743.68	1201.3	–
323.15 K, x1 = 0.3998	–	–	1.05
323.15 K, x1 = 0.4001	749.46	1207.4	–
323.15 K, x1 = 0.5002	–	–	1.08
323.15 K, x1 = 0.5004	755.35	1213.6	–
323.15 K, x1 = 0.5996	761.28	1219.8	–
323.15 K, x1 = 0.5999	–	–	1.12
323.15 K, x1 = 0.6998	–	–	1.15
323.15 K, x1 = 0.7005	767.39	1226.4	–
323.15 K, x1 = 0.7996	773.52	1233.1	–
323.15 K, x1 = 0.8001	–	–	1.2
323.15 K, x1 = 0.8997	779.8	1239.8	–
323.15 K, x1 = 0.8998	–	–	1.25
323.15 K, x1 = 1	786.25	1247.1	1.3
333.15 K, x1 = 0.1002	–	–	0.833
333.15 K, x1 = 0.1009	725.11	1153.6	–
333.15 K, x1 = 0.1998	730.66	1159.3	–
333.15 K, x1 = 0.201	–	–	0.855
333.15 K, x1 = 0.3	–	–	0.88
333.15 K, x1 = 0.3001	736.38	1165.3	–
333.15 K, x1 = 0.3998	–	–	0.906
333.15 K, x1 = 0.4001	742.18	1171.3	–
333.15 K, x1 = 0.5002	–	–	0.935
333.15 K, x1 = 0.5004	748.09	1177.6	–
333.15 K, x1 = 0.5996	754.02	1183.9	–
333.15 K, x1 = 0.5999	–	–	0.966
333.15 K, x1 = 0.6998	–	–	1
333.15 K, x1 = 0.7005	760.16	1190.5	–
333.15 K, x1 = 0.7996	766.29	1197.1	–
333.15 K, x1 = 0.8001	–	–	1.04
333.15 K, x1 = 0.8997	772.58	1203.6	–
333.15 K, x1 = 0.8998	–	–	1.07
333.15 K, x1 = 1	779.05	1211	1.12
